As a reminder, the CC50 is the concentration at which the toxic effect on the cells reaches its halfway point. Read a high CC50 as lower toxicity to the cells. Broadly, the EC50 is the concentration needed to bring the measured effect to its halfway point. One may read the IC50 as the concentration that gives 50% inhibition.

The subject of one data set is noninfected cells. Description: CyQUANT XTT Cell Viability cytotoxicity assay. Type of data set: cell-based. Background: Tetrazolium assays rely on reduction of a dye to a coloured formazan, in cell work by metabolically active cells.
Data set [1] has as its target T1, HIV-1 IN (full-length, His-tagged and FLAG-tagged) (Human immunodeficiency virus type 1 group M subtype B, UniProt P12497).
T1 construct: recombinant proteins 6xHis-tagged and FLAG-tagged full-length INs were expressed in E. coli; made in house; host or cells: E. coli
Description: HTRF-based IN multimerization assay. Type of data set: biochemical. Particulars: average with SD of three independent experiments, read-out: In vitro IN multimerization EC50. The method, then: For biochemical studies, recombinant proteins 6xHis-tagged and FLAG-tagged full-length INs were expressed in E. coli and purified by column chromatography as previously described ([39]). The HTRF-based assay used to monitor inhibitor-induced aberrant multimerization of IN was performed as previously reported ([15], [19]). Briefly, two separate preparations of His-tagged and FLAG-tagged IN proteins were mixed in presence of increasing concentration of the test compounds and incubated for 2.5 h at room temperature. Anti-His6-XL665 and anti-FLAG-EuCryptate antibodies (Cisbio, Inc) were then added to the reaction and incubated at room temperature for 3 h.
Background: Time-resolved FRET reads energy transfer from a long-lived donor to a nearby acceptor.

The test system of another data set is HIV-1. The method, then:
For early stage experiments, viral infectivity of target cells was measured in the presence of increasing concentrations of inhibitors. For late stage, producer cells were transfected in the presence of increasing concentrations of inhibitors, cell-free virions were harvested at 48 h, and the amounts of viral particles produced were measured by p24 concentration essay. Subsequently, the infectivity of these progeny virions was examined without any additional inhibitor being added to the target cells. […] For full viral cycle experiments, the same inhibitor concentrations were added in the producer cells and the target cells ([31]).
The EC50 values were determined in single replication cycle as described previously ([17]). […] The virus supernatants were collected 24 h after drug treatment, and p24 concentrations were determined by HIV-1 Gag p24 ELISA (ZeptoMetrix) following manufacturer’s protocol. The target cells were then infected with HIV-1 virions equivalent to 4 ng of HIV-1 p24, in the absence or presence of indicated concentrations of drugs. To measure EC50 values during the early replication stage, DMSO or the inhibitor was added to the target cells 60 min before infection. The cells were cultured for 48 h, and the cell extracts were prepared using reporter lysis buffer (Promega). Luciferase activity was determined using a commercially available kit (Promega). The cytotoxicity assays were performed on noninfected cells using the commercially available CyQUANT XTT Cell Viability Assay (Invitrogen, Inc) by following the manufacturer protocol. The dose–response curves were fitted with a sigmoidal dose–response equation with Hill slope to determine the compound IC50 and CC50 using Origin software (v9.7).

The target of data set [2] is T2, HIV-1 IN-CTD / full-length IN complex (Human immunodeficiency virus type 1 group M subtype B, UniProt P12497).
T2 construct: His-tagged CTD-IN and FLAG-tagged full-length IN proteins were mixed; made in house; host or cells: E. coli (stated for the full-length INs)
The data set can be described thus: HTRF-based CTD binding assay (His-tagged CTD-IN with FLAG-tagged full-length IN). Type of data set: biochemical. To be noted: 200 nM of ALLINI. The text has this: To detect in isolation the specific contribution of the IN-CTD to the ALLINI-induced IN multimer complex formation, we have modified our published HTRF-based assay (Fig. 3, A and B). In this new analytical assay, anti-His6-XL665 and anti-FLAG-EuCryptate antibodies allow the detection of fluorescence energy transfer only when FLAG-tagged full-length IN protein tightly interacts with a His-tagged IN-CTD construct. Mixing of the proteins and without compound addition generated a small HTRF signal (Fig. 3C, dimethyl sulfoxide [DMSO]) indicating a weak interaction between the full-length IN and the IN-CTD construct. Strikingly, the addition of ALLINI to the assay promoted a significant increase of HTRF signals proportional to the IN multimerization properties of the compound.
Figure 3 C-terminal domain (CTD) contribution to the ALLINI-induced IN multimer formation.A, schematic of the standard HTRF-based IN multimerization assay. […] C, HTRF signal intensities recorded after the addition of 200 nM of ALLINI to a mixture of Flag tagged full-length IN and His-tagged CTD domain proteins as described in the Methods section. ALLINI, allosteric IN inhibitors; HTRF, homogeneous time resolved fluorescence; IN, integrase.
The CTD-IN protein was generated and purified using a published method ([40]). […] The HTRF binding signal between proteins was recorded using a PerkinElmer EnSpire multimode plate reader.

In data set [3] the test system is HIV-1 virions (viral core density). Description: Sucrose density gradient fractionation of detergent-lysed virions (p24 distribution). To be noted: 1 μM during viral production, versus DMSO; fractions 16–22. Type of data set: cell-based. From the text:
We and others have previously observed how ALLINIs interfere with proper virus particle maturation and yield noninfectious particles with eccentrically positioned RNPs. This mislocalization of the RNP to a position located between the low density empty capsid (CA) core and the particle membrane in mature virions has been observed using electron microscopy ([17], [31], [32]). The buoyant sucrose gradient technique that measure the relative density of the viral core of mature virions has also been validated as an effective approach to characterize this mislocalization of the RNP ([17], [33], [34]). […] The CA core density was then detected by measuring the HIV-1 CA (p24) content of each sucrose fraction.
For sucrose density gradient fractionation ([17], [33], [34]), cell-free virions produced from HEK293T cells transfected with pNL4-3 in the absence or presence of indicated concentration of ALLINI were concentrated by ultracentrifugation over a 25% sucrose cushion, pelleted virions were lysed with 0.5% Triton X-100 and were ultracentrifuged through a 20% to 70% (wt/vol) linear sucrose density gradient at 28,500 rpm for 16 h at 4C in SW40 rotor (Beckman). […] The relative distribution of HIV-1 capsid was determined by quantifying the Western blot p24 signal. […]

Molecules are shown by their SMILES. Read-outs that look alike come from different tables or passages of the source.

`COc1ccccc1-c1ccc2c(-c3ccc4c(c3)OCCO4)c(C(OC(C)(C)C)C(=O)O)c(C)nc2c1` (stereo not shown) [JDH-2110]: in the data set with noninfected cells, the 50% cytotoxic concentration (CC50) is above 100 µM. Further, the EC50 in data set [1] came out at 0.04 ± 0.01 µM. For the same compound, in the data set with HIV-1, the “Fold improvement of overall antiviral IC50” value is listed as “about 30 fold”. Moreover, the “Fold increase of PSI” value in the data set with HIV-1 was determined as 7 fold. In the data set with HIV-1, the “PSI (phase specificity index)” value is 465. Besides, the IC50 in the data set with HIV-1 (read-out: Early IC50) stood at 9.3 ± 0.5 µM; in the data set with HIV-1 (read-out: Full IC50), 0.03 ± 0.01 µM; with HIV-1 (read-out: Late IC50) it was 0.02 ± 0.01 µM. The “HTRF signal intensity, CTD / full-length IN complex” value in data set [2] is “higher HTRF than NGJ9002”. The “Effect on HIV-1 capsid (p24) distribution in sucrose density gradient fractions” value in data set [3] is “reduction of CA signal in high-density fractions”.

`Cc1nc2ccccc2c(-c2ccc3c(c2)OCCO3)c1C(OC(C)(C)C)C(=O)O` (stereo not shown) [NGJ-9002] returned a CC50 in the data set on noninfected cells above 100 µM. In data set [1], the EC50 was found to be 0.11 ± 0.01 µM. For the same compound, the “PSI (phase specificity index)” value with HIV-1 came to 64. Besides, the IC50 with HIV-1 (read-out: Early IC50) came to 42 ± 3 µM; with HIV-1 (read-out: Full IC50) it was 0.83 ± 0.05 µM; in the data set with HIV-1 (read-out: Late IC50) it was 0.66 ± 0.03 µM.
